Values joined by “and” are separate entries in the source; they are usually repeats but may differ in a detail not shown here. Equal entries are not always repeated. Where two headings read alike, the source gives them in different places.
Experiments:
[1] = rats, intravenous injection of 25 (2 mg∙kg^−1)
[2] = Cell proliferation (cytotoxicity) assay, WST-1; type: cell-based; conditions: human, Huh 7.5.1 cells
Experimental: Cell Proliferation Assay: Huh 7.5.1 cells were seeded at a density of 2 × 10^4 cells per well in 96-well plates overnight. The cells were respectively incubated with serial diluted compounds for 48 h, and the viability of Huh7.5.1 cells was determined in 96-well tissue culture plates using cell proliferation reagent WST-1 (Roche, Basel, Switzerland). The absorbance (OD450 /reference OD630) was measured to detect the cytotoxicity of compounds, according to the manufacturer’s protocol of Cell Proliferation Reagent WST-1.

[3] = PBS pH 7.4, 37 °C

With `CCCCCCCC(=O)Oc1cccc(O)c1C(=O)NC(=O)NC1c2ccccc2-c2ccccc21` [Compound 25, 1-(2-Hydroxy-6-n-Octanoyloxybenzoyl)-3-(9H-fluoren-9-yl)-urea] the “plasma concentration after 5 min (mean ± SD)” value [1] was 20.47 ± 9.99 ng/mL, the CC50 at 48 h ([2]; Table 4, 48 h) was > 16 µM and the CC50 at 48 h ([2]; Table 5) was > 20 µM. The melting point was 184 to 189 °C, the “25 Content” value ([3]; 0 h) was 100% and the “25 Content” value ([3]; 0.5 h) was 99.79%. For the same compound, the “25 Content” value ([3]; 1.0 h) was 100.13%, the “25 Content” value ([3]; 1.5 h) was 99.76% and the “25 Content” value ([3]; 2.0 h) was 100.72%. The “25 Content” value ([3]; 3.0 h) was 100.67%, the “25 Content” value ([3]; 3.5 h) was 100.93% and the “25 Content” value ([3]; 4.0 h) was 100.74%. The “25 Content” value ([3]; 5.0 h) was 100.21%, the “25 Content” value ([3]; 6.0 h) was 100.24% and the “25 Content” value ([3]; 7.0 h) was 100.34%. For the same compound, the “25 Content” value ([3]; 8.0 h) was 100.30%, the “25 Content” value ([3]; 9.0 h) was 99.29% and the “25 Content” value ([3]; 10.0 h) was 98.88%. For the same compound, the “25 Content” value ([3]; 11.0 h) was 98.43% and the “25 Content” value ([3]; 12.0 h) was 98.65% and 98.6%.
